pIC50: −log10 of the molar value.
Tests used:
[1] = system: esophageal patient #5 adenocarcinoma tumor; assay: Esophageal patient #5 xenograft; format: in vivo, mice
From the text: For tumor samples from human patients with esophageal or pancreatic cancer, the University of Florida IACUC approved the following protocol (IACUC Study #2000902767). A total of 25 patients, 10 with pancreatic cancer and 15 with esophageal cancer have been identified and implanted into nude mice. Initially small pieces (0.3×0.3×0.3 cm) from fresh pancreatic and esophageal human tumor samples were obtained from surgical specimens of patients operated at the University of Florida Shands Hospital, and implanted subcutaneously in-group of 2 mice for each patient. For esophageal cancer specimens, when one of them has reached 1.5 cc, it was excised and was cut into small pieces of (0.3×0.3×0.3 cm), and transplanted subcutaneously into another 10 mice. When tumors reached ˜100 mm^3, mice were randomized in the following 2 groups, with 5 mice in each group: • Group 1: Control: no treatment. • Group 2: INT2-31 (Compound 31): 50 mg/kg/day in 50 μL by i.p administration for 21 days.
Mice were euthanized 30-40 days after tumor innoculation and tumor and tissue collected. For inhibition of tumor growth in our subcutaneous model, tumor volumes (length×width×height×p/6) and body weights were determined daily including weekends and holidays, to monitor tumor growth and evaluate overall clinical condition, taking into account weight loss and indications of pain, distress, or abnormal behavior and physiology. Experiments were terminated when the mean control tumor volume was 1.5 cc (approximately 30-40 days).
Immunohistochemistry: Xenograft tumor tissue was fixed in 10% formalin and embedded in paraffin. For Ki-67 staining, samples underwent deparaffinization and antigen retrieval and incubated with the primary antibody, Ki-67 (Dako M7240), at 1:200 concentration overnight at 4° C. The tissues were stained with the chromogen DAB and counterstained with hematoxylin and 1% TBS.
Subsequently, we evaluated the inhibition of in vivo tumor growth of esophageal patient #5 specimen was evaluated. […]

A375 melanoma cells = assay: CFSE cell proliferation assay, A375; format: cell-based, human
Experimental: For staining with CFSE (Molecular Probes, Eugene, Oreg.)., 1×10^7/ml cells were suspended in PBS and incubated at 37° C. for 5 min with the 10 μM of CFSE. Stained cells were cultured with medium alone or with inhibitor for 24, 48, and 72 hours, fixed and analyzed by a FACS Calibur cytometer (Becton Dickinson, San Jose, Calif.).

[2] = system: Panc-1 pancreatic cancer cells; assay: Cell viability (MTT), Panc-1; format: cell-based
Experimental: (§1) Cell viability (MTT) and CFSE Proliferation assay: Cells were plated in 96-well plates and let adhere overnight. After cell treatment, cell viability was measured by 3-(4,5-dimethylthiazol-2-yl)-2,5-diphenyl tetrazolium bromide (MTT) assay (CellTiter 96® Aqueous, Promega, Madison, Wis.).
(§2) Cell viability and detachment assays: After cells were treated with siRNA transfection, cell viability was measured by 3-(4,5-dimethylthiazol2-yl)-2,5-diphenyl tetrazolium bromide (MTT) assay (CellTiter 96® AQueous, Promega, Madison, Wis.). Briefly, 20 μl of the tetrazolium compound was added to each well. The cells were then incubated at 37° C. for 1 h. The plate was read at 490 nm with a plate reader to determine the viability. In detachment assays, detached and attached cells were harvested separately and counted in a hemocytometer. The percentage of detachment was calculated by dividing the number of detached cells by the total number of cells. Apoptosis assays: After treatment, attached and detached cells were collected, counted and prepared for terminal uridine deoxynucleotidyl transferase (TUNEL) assay by utilizing an APO-BRDU kit (BD Pharmingen, San Diego, Calif.) according to the manufacturer's instructions. Stained cells were analyzed with a fluorescence-activated cell sorting-Calibur flow cytometer (BD Biosciences). Calculation of the percentage of apoptotic cells in the sample was completed with CellQuest software (BD Biosciences). Apoptotic cells were also analyzed by Hoechst staining. Hoechst 33342 ([…]) was added to the fixed cells and the specimens were mounted on glass coverslips. The slides were viewed under the Zeiss microscope for apoptotic nuclei. The percent of apoptotic cells was calculated as the ratio of apoptotic cells to total number of cells.
In addition, the effect of INT2-31 on cell viability of esophageal, pancreatic and breast cancer cell lines was analyzed and the IC50 value for each cell line was determined, as shown in Table 1. […] Similar to melanoma results, INT2-31 inhibits viability more in cancer cells compared to normal cells. Sensitivity of the cells to INT2-31 varied and directly correlated to the FAK and IGF-1R expression level of the cells.

[3] = system: FAK +/+ and FAK −/− mouse embryonic fibroblast; assay: MTT assay on FAK wildtype and null fibroblasts; format: cell-based
Experimental: as §1
Cell proliferation assay: Cell proliferation assay (Promega) using CellTiter 96 aqueous one solution was performed by adding a small amount of the One Solution Reagent directly to culture wells, incubating for 1-4 hours and then recording absorbance at 490 nm with a spectrophotometric plate reader. The quantity of formazan product as measured by the amount of 490 nm absorbance was directly proportional to the number of living cells in culture.
as §2

IGF-1R = IGF-1R (Homo sapiens, UniProt P08069); assay: Kinase profiler screening, IGF-1R; format: biochemical; settings: 1 μM compound, 10 μM ATP
IGF-1R, sequence (P08069 31-1367): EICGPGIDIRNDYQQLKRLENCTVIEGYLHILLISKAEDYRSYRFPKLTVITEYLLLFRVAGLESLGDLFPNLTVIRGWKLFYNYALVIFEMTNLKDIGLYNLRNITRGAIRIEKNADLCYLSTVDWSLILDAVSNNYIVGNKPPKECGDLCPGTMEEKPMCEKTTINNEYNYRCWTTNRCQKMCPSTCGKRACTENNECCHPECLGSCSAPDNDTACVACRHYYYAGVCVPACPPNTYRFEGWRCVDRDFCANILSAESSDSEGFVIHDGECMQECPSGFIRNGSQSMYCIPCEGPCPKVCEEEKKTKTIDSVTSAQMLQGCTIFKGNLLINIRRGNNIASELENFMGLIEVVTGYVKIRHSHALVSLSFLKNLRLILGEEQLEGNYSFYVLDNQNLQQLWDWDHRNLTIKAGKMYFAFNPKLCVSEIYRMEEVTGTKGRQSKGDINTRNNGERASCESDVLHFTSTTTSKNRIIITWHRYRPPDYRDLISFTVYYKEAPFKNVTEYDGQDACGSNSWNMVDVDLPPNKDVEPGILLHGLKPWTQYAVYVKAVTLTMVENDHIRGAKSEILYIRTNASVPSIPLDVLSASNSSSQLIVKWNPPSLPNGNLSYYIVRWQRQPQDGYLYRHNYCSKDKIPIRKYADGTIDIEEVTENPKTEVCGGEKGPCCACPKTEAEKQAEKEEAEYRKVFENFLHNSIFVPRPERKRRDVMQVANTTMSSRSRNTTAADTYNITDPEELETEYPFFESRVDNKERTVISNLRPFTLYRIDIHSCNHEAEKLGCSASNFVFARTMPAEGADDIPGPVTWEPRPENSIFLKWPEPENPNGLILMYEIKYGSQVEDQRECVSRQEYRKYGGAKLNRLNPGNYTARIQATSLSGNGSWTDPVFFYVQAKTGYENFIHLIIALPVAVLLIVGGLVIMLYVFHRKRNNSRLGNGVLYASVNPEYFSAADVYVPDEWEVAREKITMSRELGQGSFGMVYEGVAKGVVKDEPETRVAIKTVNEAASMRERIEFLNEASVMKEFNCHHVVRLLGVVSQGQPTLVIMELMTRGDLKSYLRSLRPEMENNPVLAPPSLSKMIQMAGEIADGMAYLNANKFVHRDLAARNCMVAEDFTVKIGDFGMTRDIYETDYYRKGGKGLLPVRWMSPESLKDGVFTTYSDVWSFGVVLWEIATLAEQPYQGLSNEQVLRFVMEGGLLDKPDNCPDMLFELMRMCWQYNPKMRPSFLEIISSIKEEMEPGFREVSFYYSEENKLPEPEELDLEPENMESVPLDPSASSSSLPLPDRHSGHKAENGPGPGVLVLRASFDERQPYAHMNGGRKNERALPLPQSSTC
Experimental: Kinase Profiler Screening: Kinase specificity screening was performed with Invitrogen's SelectScreen® Kinase Profiling Services http://www.invitrogen.com/site/us/en/home/Products-and-Services/Services/Discoverv-Research/SelectScreen-Profiling-Service/SelectScreen-Kinase-Profiling-Service.html. The screening was performed with 1 μM compound, INT2-31, 10 μM ATP, and kinase substrates against ten recombinant kinases according to Z′-LYTET™ Kinase Assay. For PI3 kinase activity, 100 μM ATP, and kinase substrate were utilized with the Invitrogen Adapta® Universal Kinase Assay protocol. Tumor Growth in Nude Mice in vivo: Six week old athymic, female nude mice were purchased from Harlan Laboratory. The mice were maintained in the animal facility, and all experiments were performed in compliance with NIH animal-use guidelines and under an IACUC approved protocol. Melanoma cells were injected, 5×10^6 cells, subcutaneously. When the tumor size reached 100 mm^3, the INT2-31 was introduced by intraperitoneal injection at a dose of 15 mg/kg daily for 21 days. Tumor diameters were measured with calipers, and tumor volume in mm^3 was calculated using the formula [(width)^2×length]/2. At the end of experiment, tumor weight and volume were determined.

SMILES: CSc1ncnc2c1ccn2C1O[C@H](COP(=O)(O)O)[C@@H](O)[C@H]1O (stereo partly drawn) [INT2-31, 4-(Methylthio)-7-(5-O-phosphono-D-ribofuranosyl)-{7H-Pyrrolo[2,3-d]pyrimidine}]
- body weights between animals in each group ([1]; 50 mg/kg daily intraperitoneal): no significant difference
- tumor growth compared to PBS control ([1]; 50 mg/kg daily intraperitoneal, 21 days, p<0.05): significant decrease
- percent of cells reactive to Ki67 ([1]; 50 mg/kg vs PBS group): significantly decreased
- cell proliferation (CSFE) (A375 melanoma cells): inhibited cell proliferation
- pIC50 ([2]; Homo sapiens, Panc-1, 72 hours, read-out: IC50 of INT2-31, cell viability): 5.17
- cell viability (in words) ([2]; Panc-1, 72 hours): inhibits the cell viability
- effect of combination with 5-FU on cell viability ([2]; pancreatic cancer cells, 1 μM INT2-31): synergistic effects
- effect of combination with gemcitabine on cell viability ([2]; pancreatic cancer cells, data not shown): only additive
- proliferation of FAK+/+ fibroblast cells ([3]; 0.05 μM, 72-hour treatment): reduced the proliferation
- proliferation of FAK−/− cells ([3]; 0.05 μM, 72-hour treatment): no effect
- effect on FAK wildtype compared to null fibroblasts ([3]; MTT, p<0.05): significantly more sensitive
- kinase activity of IGF-1R (IGF-1R): did not inhibit

Reference: patent publication US20120107323A1, “KINASE PROTEIN BINDING INHIBITORS” (University of Florida, priority 2009, published 2012)
